molecular target: T1, hMCHR (MCH receptor) (Homo sapiens, UniProt Q99705); test: MCH Assay PCOP Protocol ([125I]-MCH SPA binding to hMCHR-CHO membranes); conditions: [125I]-MCH 0.5 nM, hMCHR-CHO membranes; read-out: Activity (ranges of Ki values);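 as to Activity (Ki range): A 0.4–50 nM B 51–500 nM C 501–2500 nM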
T1 construct: (or internally produced); host or cells: CHO (Chinese hamster ovary) cells, membrane preparation
In short: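 SPA binding with 10 μg hMCHR-CHO membranes and WGA-SPA beads in 25 mM HEPES pH 7.4, 10 mM NaCl, 10 mM MgCl2, 5 mM MnCl2, 0.1% BSA.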

T1 sequence (Q99705 whole entry): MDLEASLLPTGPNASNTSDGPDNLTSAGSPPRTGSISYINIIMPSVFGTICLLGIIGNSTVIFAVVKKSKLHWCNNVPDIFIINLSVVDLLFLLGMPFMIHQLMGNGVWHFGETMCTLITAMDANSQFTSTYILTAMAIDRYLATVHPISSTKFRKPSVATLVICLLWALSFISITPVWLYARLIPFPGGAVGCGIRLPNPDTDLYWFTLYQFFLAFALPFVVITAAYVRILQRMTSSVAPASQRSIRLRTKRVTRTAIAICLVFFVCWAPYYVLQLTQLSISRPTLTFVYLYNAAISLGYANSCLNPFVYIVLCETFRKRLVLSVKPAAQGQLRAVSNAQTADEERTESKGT

Structure (SMILES)	Ki [nM]
CNCCC(CNC(=O)Nc1ccc(F)cc1)c1ccc(-c2cccc(C#N)c2)cc1 (stereo not drawn) [Example 60]	0.4 to 50
CCNC(=O)NC1CCN(CCC(CNC(=O)Nc2cc(Cl)cc(Cl)c2)c2ccc(-c3cccc(C#N)c3)cc2)C1 [Example 27, (R,S)-1-1-{3-(3′-Cyano-biphenyl-4-yl)-4-[3 (3,5-dichloro-phenyl)-ureido]-butyl}-pyrrolidin-3-yl)-3-ethyl-urea]	501 to 2500
CN(C)CCCNCCC(CNC(=O)Nc1cc(Cl)cc(Cl)c1)c1cccc(-c2ccccc2Cl)c1 (stereo not drawn) [Example 176]	501 to 2500
CNCCC(CNC(=O)Nc1cccc(F)c1)c1ccc(-c2cccc(C#N)c2)cc1 (stereo not drawn) [Example 49]	0.4 to 50
N#Cc1cccc(-c2ccc(C(CCNC3CC3)CNC(=O)c3cc(F)cc(F)c3)cc2)c1 (stereo not drawn) [Example 69]	51 to 500
CCNC(=O)N1CCC(NCCC(CNC(=O)Nc2cc(Cl)cc(Cl)c2)c2ccc(C)cc2)C1 (stereo not drawn) [Example 180]	51 to 500
O=C(NCC(CCNC1CCCC1)c1ccc2c(c1)OCO2)Nc1cc(Cl)cc(Cl)c1 (stereo not drawn) [Example 106]	51 to 500
CC(=O)Nc1cccc(-c2cccc(C(CCNCCCN(C)C)CNC(=O)Nc3cc(Cl)cc(Cl)c3)c2)c1 (stereo not drawn) [Example 168]	501 to 2500
Cc1ccc(C(CCNC2CCCC2)CN2CCN(c3cc(Cl)cc(Cl)c3)C2=O)cc1 (stereo not drawn) [Example 160]	51 to 500
CS(=O)(=O)NC1CCN(CCC(CNC(=O)Nc2cc(Cl)cc(Cl)c2)c2ccc(-c3cccc(C#N)c3)cc2)CC1 (racemic) [Example 29, (R,S)-N-(1-{3-(3′-Cyano-biphenyl-4-yl)-4-[3-(3,5-dichloro-phenyl)-ureido]-butyl}-piperidin-4-yl)methane-sulfonamide]	501 to 2500
CCOC(=O)N1CCC(NCCC(CNC(=O)Nc2cc(Cl)cc(Cl)c2)c2ccc(C)cc2)CC1 (stereo not drawn) [Example 123]	51 to 500
CCNC(=O)N1CCC(NCCC(CNC(=O)Nc2cc(Cl)cc(Cl)c2)c2ccc(Cl)c(Cl)c2)C1 (stereo not drawn) [Example 182]	51 to 500
CNCCC(CNC(=O)Nc1ccc(F)c(F)c1)c1ccc(-c2cccc(C#N)c2)cc1 (stereo not drawn) [Example 44]	0.4 to 50
Cc1ccc(C(CCNC2CCCC2)CNC(=O)Nc2cccc(Br)c2)cc1 (stereo not drawn) [Example 143]	501 to 2500
O=C(NCC(CCN1CCC(NC(=O)C2CCC2)CC1)c1ccc(Cl)cc1)Nc1cc(Cl)cc(Cl)c1 (stereo not drawn) [Example 185]	51 to 500
CN(C)CCC(OC(=O)Nc1cc(Cl)cc(Cl)c1)c1ccc(-c2ccncc2)cc1 (stereo not drawn) [Example 33, (3,5-Dichloro-phenyl)-carbamic acid 3-dimethylamino-1-(4-pyridin-4-yl-phenyl)-propyl ester]	501 to 2500
COCC(=O)NC1CCN(CCC(CNC(=O)Nc2cc(Cl)cc(Cl)c2)c2ccc(Cl)c(Cl)c2)C1 (stereo not drawn) [Example 188]	51 to 500

Structure (SMILES)	Ki [nM]
Cc1ccc(C(CCN2CCC(NC(=O)C3CCC3)C2)CNC(=O)Nc2cc(Cl)cc(Cl)c2)cc1 (stereo not drawn) [Example 184]	51 to 500
CNCCC(CNC(=O)Nc1cccc(Cl)c1)c1ccc(-c2cccc(C#N)c2)cc1 (stereo not drawn) [Example 45]	0.4 to 50
COc1ccccc1-c1cccc(C(CCNCCCN(C)C)CNC(=O)Nc2cc(Cl)cc(Cl)c2)c1 (stereo not drawn) [Example 174]	501 to 2500
CN(C)CCCNCCC(CNC(=O)Nc1cc(Cl)cc(Cl)c1)c1cccc(-c2ccc(Cl)c(Cl)c2)c1 (stereo not drawn) [Example 167]	501 to 2500
O=C(NCC(CCNC1CCCC1)c1cccc(-c2ccccc2Cl)c1)Nc1cc(Cl)cc(Cl)c1 (stereo not drawn) [Example 166]	501 to 2500
COc1cscc1C(=O)NC1CCN(CCC(CNC(=O)Nc2cc(Cl)cc(Cl)c2)c2ccc(Cl)cc2)CC1 (stereo not drawn) [Example 201]	501 to 2500
CCCOC(=O)N1CCN(CCC(CNC(=O)Nc2cc(C(F)(F)F)cc(C(F)(F)F)c2)c2ccc(Cl)c(Cl)c2)CC1 (stereo not drawn) [Example 146]	51 to 500
O=C(NCC(CCNC1CCCC1)c1ccc(-c2ccc[n+]([O-])c2)cc1)Nc1cc(Cl)cc(Cl)c1 (stereo not drawn) [Example 94]	0.4 to 50
O=C(NCC(CCNC1CCCC1)c1ccc(Cl)c(Cl)c1)c1cc(C(F)(F)F)cc(C(F)(F)F)c1 (racemic) [Example 20, (R,S)-N-[4-Cyclopentylamino-2-(3,4-dichloro-phenyl)-butyl]-3,5-bis-trifluoromethyl-benzamide]	501 to 2500
CS(=O)(=O)NC1CCN(CCC(CNC(=O)Nc2cc(Cl)cc(Cl)c2)c2ccc(Cl)c(Cl)c2)C1 (stereo not drawn) [Example 211]	501 to 2500
Cc1ccc(C(CCNCCCN(C)C)CNC(=O)Nc2cc(Cl)cc(Cl)c2)cc1C (stereo not drawn) [Example 118]	501 to 2500
CC(CCNC1CCCC1)(CNC(=O)Nc1ccc(Cl)c([N+](=O)[O-])c1)c1ccc(Cl)c(Cl)c1 (stereo not drawn) [Example 105]	51 to 500
COc1cc(CNCCC(CNC(=O)Nc2cc(Cl)cc(Cl)c2)c2ccc(Cl)c(Cl)c2)cc(OC)c1OC (stereo not drawn) [Example 129]	51 to 500
N#Cc1cccc(-c2ccc(C(CCNC3CCCC3)CNC(=O)c3cccc(F)c3)cc2)c1 (stereo not drawn) [Example 84]	51 to 500
CN(C)CCC(CN1CCN(c2cc(Cl)cc(Cl)c2)C1=O)c1ccc(-c2cccc(C#N)c2)cc1 (stereo not drawn) [Example 32, 4′-{1-[3-(3,5-Dichlorophemyl)-2-oxoimidazolidin-1-ylmethyl]-3-dimethylaminopropyl}-biphenyl-3-carbonitrile]	501 to 2500
O=C(NCC(CCNC1CCCC1)c1ccc(-c2ccc(F)c(F)c2)cc1)Nc1cc(Cl)cc(Cl)c1 (stereo not drawn) [Example 90]	0.4 to 50

same assay, conditions: [125I]-MCH SPA binding, hMCHR-CHO membranes; Ki class ranges; read-out: Activity (range of Ki)

Structure (SMILES)	Ki [nM]
O=C(NCC(CCNCC1CCCO1)c1ccc(Cl)c(Cl)c1)Nc1cc(C(F)(F)F)cc(C(F)(F)F)c1 (stereo not drawn) [Example 431]	501 to 2500
O=C(NCC(CCN1CCCCC1)c1ccc(Cl)c(Cl)c1)Nc1cc(C(F)(F)F)cc(C(F)(F)F)c1 (stereo not drawn) [Example 444]	51 to 500
Cc1ccc(C(CCN2CCCCC2)CNC(=O)c2cc(C(F)(F)F)cc(C(F)(F)F)c2)cc1 (stereo not drawn) [Example 454]	501 to 2500

same assay, conditions: [125I]-MCH binding to hMCHR-CHO membranes; class symbols for ranges of Ki; read-out: Activity (Ki range)

Structure (SMILES)	Ki [nM]
Cn1cnc(CCNCCC(CNC(=O)Nc2cccc(C(F)(F)F)c2)c2ccc(Cl)c(Cl)c2)c1 (stereo not drawn) [Example 303]	501 to 2500
O=C(NCC(CCNC1CCC1)c1ccc(Cl)c(Cl)c1)Nc1ccc(F)c(F)c1 (stereo not drawn) [Example 265]	501 to 2500
CN(C)CCCNCCC(CNC(=O)Nc1cc(Cl)cc(Cl)c1)c1ccc(-c2ccccc2Cl)cc1 (stereo not drawn) [Example 232]	51 to 500
CN(C)CCCNCCC(CNC(=O)Nc1cc(Cl)cc(Cl)c1)c1ccc(-c2ccc(F)cc2)cc1 (stereo not drawn) [Example 237]	51 to 500
Cc1cccc(C(CCNCCCN(C)C)CNC(=O)Nc2cc(C(F)(F)F)cc(C(F)(F)F)c2)c1 (stereo not drawn) [Example 347]	501 to 2500
O=C(NCC(CCNCCc1c[nH]c2ccccc12)c1cccc(F)c1)Nc1cc(C(F)(F)F)cc(C(F)(F)F)c1 (stereo not drawn) [Example 343]	501 to 2500
CCN(CC)CCC(CNC(=O)c1cc(C(F)(F)F)cc(C(F)(F)F)c1)c1ccc(Cl)c(Cl)c1 (stereo not drawn) [Example 412]	501 to 2500
O=C(NCC(CCNC1CCCC1)c1ccc(-c2ccc(F)cc2)cc1)Nc1cc(Cl)cc(Cl)c1 (stereo not drawn) [Example 243]	51 to 500
Cc1ccc(C(CCN2CCC(N3CCCCC3)CC2)CNC(=O)Nc2cc(Cl)cc(Cl)c2)cc1 (stereo not drawn) [Example 351]	51 to 500
Cn1cnc(CCNCCC(CNC(=O)Nc2ccc(Cl)c(Cl)c2)c2ccc(Cl)c(Cl)c2)c1 (stereo not drawn) [Example 284]	51 to 500
Cc1cc(CNC(=O)C(CCN2CCCC(C)C2)c2ccc(Cl)c(Cl)c2)cc(C(F)(F)F)c1 (stereo not drawn) [Example 391]	501 to 2500
COc1cc(NC(=O)NCC(CCN2CCCCC2)c2ccc(C)cc2)cc(OC)c1 (stereo not drawn) [Example 354]	501 to 2500
O=C(NCC(CCN1CCN(c2ccc(O)cc2)CC1)c1ccc(Cl)c(Cl)c1)c1cc(C(F)(F)F)cc(C(F)(F)F)c1 (stereo not drawn) [Example 402]	501 to 2500
COc1cc(NC(=O)NCC(CCN2CCC(N3CCCCC3)CC2)c2ccc(Cl)c(Cl)c2)cc(OC)c1 (stereo not drawn) [Example 370]	501 to 2500
O=C(NCC(CCNCCc1c[nH]c2ccccc12)c1ccc(Cl)c(Cl)c1)Nc1cc(Cl)cc(Cl)c1 (stereo not drawn) [Example 294]	501 to 2500
O=C(NCC(CCNC1CCC1)c1ccc(Cl)c(Cl)c1)c1cc(C(F)(F)F)cc(C(F)(F)F)c1 (stereo not drawn) [Example 398]	501 to 2500
CN(C)CCCNCCC(CNC(=O)Nc1cc(Cl)cc(Cl)c1)c1ccc(-c2ccc(F)c(Cl)c2)cc1 (stereo not drawn) [Example 224]	0.4 to 50
O=C(NCC(CCN1CCCC1)c1ccc(Cl)c(Cl)c1)Nc1ccc(Cl)c(Cl)c1 (stereo not drawn) [Example 287]	51 to 500
COc1cc(CNCCC(CNC(=O)Nc2ccc(Cl)c(Cl)c2)c2ccc(Cl)c(Cl)c2)cc(OC)c1OC (stereo not drawn) [Example 259]	51 to 500
Cc1ccc(C(CCN2CCCCC2)CNC(=O)Nc2cc(Cl)cc(Cl)c2)cc1 (stereo not drawn) [Example 350]	51 to 500
CN(C)CCCNCCC(CNC(=O)Nc1cc(Cl)cc(Cl)c1)c1ccc(-c2ccc(Cl)c(Cl)c2)cc1 (stereo not drawn) [Example 247]	51 to 500
O=C(NCC(CCN1CCC(N2CCCCC2)CC1)c1ccc(Cl)c(Cl)c1)Nc1ccc(OC(F)(F)F)cc1 (stereo not drawn) [Example 362]	501 to 2500
COc1ccccc1-c1ccc(C(CCNC2CCCC2)CNC(=O)Nc2cc(Cl)cc(Cl)c2)cc1 (stereo not drawn) [Example 238]	51 to 500
O=C(NCC(CCNCCc1c[nH]c2cc(F)ccc12)c1ccc(Cl)c(Cl)c1)c1cc(C(F)(F)F)cc(C(F)(F)F)c1 (stereo not drawn) [Example 415]	501 to 2500
CC(Cc1c[nH]c2ccc(F)cc12)NCCC(CNC(=O)c1cc(C(F)(F)F)cc(C(F)(F)F)c1)c1ccc(Cl)c(Cl)c1 (stereo not drawn) [Example 399]	501 to 2500
O=C(NCC(CCNC1CCC1)c1ccc(Cl)c(Cl)c1)Nc1cccc(C(F)(F)F)c1 (stereo not drawn) [Example 283]	51 to 500
O=C(NCC(CCN1CCC(N2CCCCC2)CC1)c1ccc(Cl)c(Cl)c1)Nc1cccc([N+](=O)[O-])c1 (stereo not drawn) [Example 317]	501 to 2500
O=C(NCC(CCN1CCC(NC(=O)c2ccno2)CC1)c1ccc(Cl)c(Cl)c1)Nc1cc(Cl)cc(Cl)c1 (stereo not drawn) [Example 217]	501 to 2500
CN1CCCC1CCNCCC(CNC(=O)Nc1cc(Cl)cc(Cl)c1)c1ccc(Cl)c(Cl)c1 (stereo not drawn) [Example 301]	501 to 2500
CN(C)CCCNCCC(CNC(=O)Nc1cc(Cl)cc(Cl)c1)c1ccc(-c2cccs2)cc1 (stereo not drawn) [Example 231]	51 to 500

Reference: patent US7034056B2, “Aryl and biaryl compounds having MCH modulatory activity” (Pharmacopeia Drug Discovery, inc., priority 2001, dated 2006)
